Data on five compounds can be found in PubChem BioAssay AID1918944 (Molecular Pharmacology Branch, DTP, NCI, 2023).

The test system of this experiment is 786-0 complex spheroid viability. Nature of the experiment: Anticancer human tumor 786-0 cell line growth inhibition.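 For all read-outs here: spheroids exposed to agents for seven days before readout.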 The conditions noted are these: for viability, T/C: stronger effect = lower value. The method in brief:
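Complex spheroids of tumor cells with HUVEC and human MSCs, exposed to iadademstat combined with other agents. Each agent tested in half-log steps from near clinical Cmax (else 10 microM top), DMSO ≤0.25%.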

Where [1] appears, read: curve of first compound, second compound 0.1 µM.
Setting [2] is: curve of first compound, second compound 0.316 µM.
The mark [3] stands for this setting: curve of first compound, second compound 1 µM.
The mark [4] stands for this setting: curve of first compound, second compound 3.16 µM.
Where [5] appears, read: curve of first compound, second compound 10 µM.
[6] abbreviates: second compound 0.1 µM, first compound 0.000949 µM.
Setting [7] is: second compound 0.1 µM, first compound 0.003 µM.
The mark [8] stands for this setting: second compound 0.1 µM, first compound 0.00949 µM.
Setting [9] is: second compound 0.1 µM, first compound 0.03 µM.
Where [10] appears, read: second compound 0.1 µM, first compound 0.0949 µM.
Setting [11] is: second compound 0.1 µM, first compound 0.3 µM.
[12] abbreviates: second compound 0.316 µM, first compound 0.000949 µM.
The mark [13] stands for this setting: second compound 0.316 µM, first compound 0.003 µM.
[14] abbreviates: second compound 0.316 µM, first compound 0.00949 µM.
[15] abbreviates: second compound 0.316 µM, first compound 0.03 µM.
Setting [16] is: second compound 0.316 µM, first compound 0.0949 µM.
[17] abbreviates: second compound 0.316 µM, first compound 0.3 µM.
Setting [18] is: second compound 1 µM, first compound 0.000949 µM.
Setting [19] is: second compound 1 µM, first compound 0.003 µM.
[20] abbreviates: second compound 1 µM, first compound 0.00949 µM.
The mark [21] stands for this setting: second compound 1 µM, first compound 0.03 µM.
The mark [22] stands for this setting: second compound 1 µM, first compound 0.0949 µM.
Setting [23] is: second compound 1 µM, first compound 0.3 µM.
Setting [24] is: second compound 3.16 µM, first compound 0.000949 µM.
[25] abbreviates: second compound 3.16 µM, first compound 0.003 µM.
[26] abbreviates: second compound 3.16 µM, first compound 0.00949 µM.
[27] abbreviates: second compound 3.16 µM, first compound 0.03 µM.
Where [28] appears, read: second compound 3.16 µM, first compound 0.0949 µM.
Where [29] appears, read: second compound 3.16 µM, first compound 0.3 µM.
[30] abbreviates: second compound 10 µM, first compound 0.000949 µM.
Where [31] appears, read: second compound 10 µM, first compound 0.003 µM.
[32] abbreviates: second compound 10 µM, first compound 0.00949 µM.
Where [33] appears, read: second compound 10 µM, first compound 0.03 µM.
Setting [34] is: second compound 10 µM, first compound 0.0949 µM.
Where [35] appears, read: second compound 10 µM, first compound 0.3 µM.

“And” between values parts separate entries of the source, which are not always exact repeats. Equal entries are not always repeated. The source made the active and inactive calls. Rule for the calls: active = viability on the fitted dose curve at most 10% of control; inactive = the rest.

Broadly, the IC50 is the point on the concentration scale where inhibition reaches its midpoint. One may read the viability, T/C as the result in the treated group divided by that in the control group, in per cent. On to `CCc1c2c(nc3ccc(O)cc13)-c1cc3c(c(=O)n1C2)COC(=O)[C@]3(O)CC` + NC1CCC(NC2CC2c2ccccc2)CC1, for which the IC50 runs as follows: under setting [1], less than 0.949 nM; under setting [2], less than 0.949 nM; under setting [3], less than 0.949 nM; under setting [4], less than 0.949 nM; under setting [5], less than 0.949 nM. Further, the viability, T/C runs as follows: under setting [6], 5.59%; under setting [7], 3.78%; under setting [8], 4.66%; under setting [9], 5.87%; under setting [10], 7.32%; under setting [11], 5.08%. Besides, the viability, T/C was 4.71% under setting [12]; 5.02% under setting [13]; 5.44% under setting [14]; 5.35% under setting [15]; 6.11% under setting [16]; 6.29% under setting [17]. Also, the viability, T/C reads like this: under setting [18], 4.87%; under setting [19], 4.67%; under setting [20], 4.31%; under setting [21], 6.32%; under setting [22], 7.36%; under setting [23], 5.93%. In addition, the viability, T/C by setting is: under setting [24], 4.72%; under setting [25], 4.8%; under setting [26], 5.76%; under setting [27], 6.79%; under setting [28], 7.9%; under setting [29], 6.54%. Further, the viability, T/C by setting is: under setting [30], 3.83%; under setting [31], 4.29%; under setting [32], 6.51%; under setting [33], 9.43%; under setting [34], 10.1%; under setting [35], 7.07%.
As for `O=C(C=Cn1cnc(-c2cc(C(F)(F)F)cc(C(F)(F)F)c2)n1)NNc1cnccn1` + NC1CC1c1ccc(-c2cccc(O)c2)cc1, the IC50 under setting [1] is 37.7 nM; the IC50 under setting [2] worked out at 34.3 nM; the IC50 under setting [3] stood at 40 nM; the IC50 under setting [4] came to 37.5 nM; the half-inhibitory concentration (IC50) under setting [5] was found to be 35.6 nM. Besides, the viability, T/C (second compound 0.1 µM, first compound 0.00316 µM) is 92.5%; the viability, T/C (second compound 0.1 µM, first compound 0.01 µM) is 72.2%; the viability, T/C (second compound 0.1 µM, first compound 0.0316 µM) was 51.1%; the viability, T/C (second compound 0.1 µM, first compound 0.1 µM) is 39.1%; the viability, T/C (second compound 0.1 µM, first compound 0.316 µM) was 28.9%; the viability, T/C (second compound 0.1 µM, first compound 1 µM) was 25.2%. Also, the viability, T/C is, setting by setting: (second compound 0.316 µM, first compound 0.00316 µM) 100%; (second compound 0.316 µM, first compound 0.01 µM) 72.5%; (second compound 0.316 µM, first compound 0.0316 µM) 51.5%; (second compound 0.316 µM, first compound 0.1 µM) 36.7%; (second compound 0.316 µM, first compound 0.316 µM) 29.9%; (second compound 0.316 µM, first compound 1 µM) 26.2%. The viability, T/C is 95.7% (second compound 1 µM, first compound 0.00316 µM); 71.3% (second compound 1 µM, first compound 0.01 µM); 53.4% (second compound 1 µM, first compound 0.0316 µM); 37.7% (second compound 1 µM, first compound 0.1 µM); 31.2% (second compound 1 µM, first compound 0.316 µM); 22.7% (second compound 1 µM, first compound 1 µM). Further, the viability, T/C runs as follows: (second compound 3.16 µM, first compound 0.00316 µM) 99.4%; (second compound 3.16 µM, first compound 0.01 µM) 73.5%; (second compound 3.16 µM, first compound 0.0316 µM) 52.4%; (second compound 3.16 µM, first compound 0.1 µM) 38.1%; (second compound 3.16 µM, first compound 0.316 µM) 29.1%; (second compound 3.16 µM, first compound 1 µM) 26.3%. In addition, the viability, T/C (second compound 10 µM, first compound 0.00316 µM) is 108%; the viability, T/C (second compound 10 µM, first compound 0.01 µM) was 67.8%; the viability, T/C (second compound 10 µM, first compound 0.0316 µM) was 55%; the viability, T/C (second compound 10 µM, first compound 0.1 µM) is 39.4%; the viability, T/C (second compound 10 µM, first compound 0.316 µM) is 29.7%; the viability, T/C (second compound 10 µM, first compound 1 µM) is 25.4%.
For `Nc1ccn(C2OC(CO)C(O)C2(F)F)c(=O)n1` (stereo not given), the viability, T/C is 10.4% and 19.8% (compound 0.000949 µM); 4.3% and 7% (compound 0.003 µM); 4.25% (compound 0.00949 µM); 4.55% and 6.65% (compound 0.03 µM); 4.92% and 6.2% (compound 0.0949 µM); 6.14% and 6.43% (compound 0.3 µM). In addition, under “compound 0.00949 µM”, the outcome was active. Moreover, the concentration for half-maximal inhibition (IC50) (curve of compound) is less than 0.949 nM.
Take `CCc1c2c(nc3ccc(O)cc13)-c1cc3c(c(=O)n1C2)COC(=O)[C@]3(O)CC` + NC1CC1c1ccc(-c2cccc(O)c2)cc1: the IC50 runs as follows: under setting [1], less than 0.949 nM; under setting [2], less than 0.949 nM; under setting [3], less than 0.949 nM; under setting [4], less than 0.949 nM; under setting [5], less than 0.949 nM. Moreover, the viability, T/C under setting [6] is 4.23%; the viability, T/C under setting [7] was 4.35%; the viability, T/C under setting [8] was 4.15%; the viability, T/C under setting [9] is 6.01%; the viability, T/C under setting [10] was 8.35%; the viability, T/C under setting [11] was 9.73%. The viability, T/C under setting [12] is 4.4%; the viability, T/C under setting [13] was 3.22%; the viability, T/C under setting [14] was 4.02%; the viability, T/C under setting [15] was 6.1%; the viability, T/C under setting [16] was 8.62%; the viability, T/C under setting [17] is 9.44%. Also, the viability, T/C by setting is: under setting [18], 3.72%; under setting [19], 3.14%; under setting [20], 4.57%; under setting [21], 6.53%; under setting [22], 7.76%; under setting [23], 8.97%. The viability, T/C by setting is: under setting [24], 4.08%; under setting [25], 3.82%; under setting [26], 4.22%; under setting [27], 6.42%; under setting [28], 7.92%; under setting [29], 7.63%. In addition, the viability, T/C was 3.29% under setting [30]; 4.49% under setting [31]; 5.68% under setting [32]; 8.54% under setting [33]; 9.57% under setting [34]; 9.08% under setting [35].
As to `NS(=O)(=O)OCC1CC(n2ccc3c(NC4CCc5ccccc54)ncnc32)CC1O` (stereo not given), the viability, T/C was 99.2% and 89.2% (compound 0.00949 µM); 84.4% and 87.8% (compound 0.03 µM); 66.8% and 85.6% (compound 0.0949 µM); 23.5% and 34.7% (compound 0.3 µM); 6.87% and 15.1% (compound 0.949 µM); 6.08% and 15.5% (compound 3 µM). In addition, under “curve of compound”, the IC50 is 144 nM and 212 nM.
